ChEMBL document CHEMBL5325505, “Discovery of chiral 1,4-diarylazetidin-2-one-based hydroxamic acid derivatives as novel tubulin polymerization inhibitors with histone deacetylase inhibitory activity” (Bioorg Med Chem, 2023)
Values after ≈ are worked out from the molar mass of the structure shown. Active and inactive are the calls of the source. The rule behind the calls is not given here.

How the values were obtained:
BE(2)-C [1] = experiment: Antiproliferative activity against human BE2C cells incubated for 48 hrs by MTT assay; format: functional, cell-based
A549 = experiment: Antiproliferative activity against human A549 cells incubated for 48 hrs by MTT assay; format: functional, cell-based; settings: A549, 48 h
U-87 MG = experiment: Antiproliferative activity against human U-87 MG cells incubated for 48 hrs by MTT assay; format: functional, cell-based, U-87MG ATCC
HCT-116 = experiment: Antiproliferative activity against human HCT-116 cells incubated for 48 hrs by MTT assay; format: functional, cell-based; settings: HCT-116, 48 h
Histone deacetylase 8 = molecular target: T1, Histone deacetylase 8 (Homo sapiens, UniProt Q9BY41); experiment: Inhibition of HDAC8 (unknown origin)
T1 sequence (Q9BY41 whole entry): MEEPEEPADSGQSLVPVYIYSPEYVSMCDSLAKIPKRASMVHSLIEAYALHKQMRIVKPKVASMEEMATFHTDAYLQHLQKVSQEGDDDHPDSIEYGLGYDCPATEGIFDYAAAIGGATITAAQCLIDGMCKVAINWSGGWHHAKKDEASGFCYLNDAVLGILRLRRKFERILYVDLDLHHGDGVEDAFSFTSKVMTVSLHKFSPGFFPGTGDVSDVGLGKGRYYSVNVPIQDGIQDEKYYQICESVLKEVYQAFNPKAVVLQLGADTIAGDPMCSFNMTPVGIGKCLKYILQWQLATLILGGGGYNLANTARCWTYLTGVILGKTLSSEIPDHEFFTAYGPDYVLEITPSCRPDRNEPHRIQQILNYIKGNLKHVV

BE(2)-C [2] = experiment: Upregulation of acetylated H3 expression in human BE2C cells by Western blot analysis; format: functional, cell-based; settings: dose 25-100 nM
BE(2)-C [3] = experiment: Upregulation of acetylated SMC3 expression in human BE2C cells by Western blot analysis; format: functional, cell-based; settings: dose 25-100 nM
BE(2)-C [4] = experiment: Upregulation of acetylated tubulin expression in human BE2C cells by Western blot analysis; format: functional, cell-based; settings: dose 25-100 nM
Tubulin (Sus scrofa) = Tubulin (Sus scrofa) (UniProt P02554+P02550); experiment: (§1) Inhibition of tubulin polymerization of pig brain by absorbance based assay; settings: dose 0.4-12 µM
Tubulin = Tubulin (Sus scrofa, UniProt P02554+P02550); experiment: as §1
[5] = Aqueous solubility of compound at 1 mg incubated for 10 mins; format: physicochemical
Tubulin (Homo sapiens) [6] = molecular target: T2, Tubulin (Homo sapiens) (UniProt P68371+Q9H4B7+P0DPH7+P68366+Q13509+Q71U36+P04350+Q3ZCM7+P07437+P68363+Q9BQE3+Q6PEY2+Q13885+Q9BVA1+Q9BUF5); experiment: Inhibition of tubulin polymerization in human BE2C cells assessed as disruption of fibrous microtubule network at 25 to 100 nM incubated for 24 hrs by immunofluorescence based microscopy; format: cell-based; settings: dose 25-100 nM
Tubulin (Homo sapiens) [7] = molecular target: T2, Tubulin (Homo sapiens); experiment: Inhibition of tubulin polymerization in human BE2C cells assessed as decrease in tubulin density at 25 to 100 nM incubated for 24 hrs by immunofluorescence based microscopy; format: cell-based; settings: dose 25-100 nM
BE(2)-C [8] = experiment: Inhibition of colony formation in human BE2C cells incubated for 36 hrs by gentian violet staining based assay; format: functional, cell-based; settings: dose 25-100 nM
BE(2)-C [9] = experiment: Inhibition of colony formation in human BE2C cells at 100 nM incubated for 36 hrs by gentian violet staining based assay relative to control; format: functional
BE(2)-C [10] = experiment: Upregulation of cleaved PARP-1 expression in human BE2C cells at 25 to 100 nM by Western blot analysis; format: functional, cell-based; settings: dose 25-100 nM
BE(2)-C [11] = experiment: Upregulation of Bax expression in human BE2C cells at 25 to 100 nM by Western blot analysis; format: functional, cell-based; settings: dose 25-100 nM
BE(2)-C [12] = experiment: Induction of cell cycle arrest in human BE2C cells assessed as accumulation at G2/M phase incubated for 24 hrs by RNase/PI staining based flow cytometry; format: functional
BE(2)-C [13] = experiment: Induction of cell cycle arrest in human BE2C cells assessed as increase in cyclin B1 expression by Western blot analysis; format: functional, cell-based; settings: dose 12.5-50 nM
BE(2)-C [14] = experiment: Induction of cell cycle arrest in human BE2C cells assessed as increase in phosphorylated H3 expression by Western blot analysis; format: functional, cell-based; settings: dose 12.5-50 nM
BE(2)-C [15] = experiment: Induction of apoptosis in human BE2C cells assessed as viable cells at 25 nM incubated for 48 hrs by annexin V-FITC/PI staining based flow cytometry (reference value: 82.16 %); format: functional; settings: read-out: Activity
BE(2)-C [16] = experiment: Induction of apoptosis in human BE2C cells assessed as early apoptotic cells at 25 nM incubated for 48 hrs by annexin V-FITC/PI staining based flow cytometry (reference value: 4.28 %); format: functional
BE(2)-C [17] = experiment: Induction of apoptosis in human BE2C cells assessed as late apoptotic cells at 25 nM incubated for 48 hrs by annexin V-FITC/PI staining based flow cytometry (reference value: 9.99 %); format: functional
BE(2)-C [18] = experiment: Induction of apoptosis in human BE2C cells assessed as necrotic cells at 25 nM incubated for 48 hrs by annexin V-FITC/PI staining based flow cytometry (reference value: 3.57 %); format: functional
BE(2)-C [19] = experiment: Induction of apoptosis in human BE2C cells assessed as early apoptotic cells at 50 nM incubated for 48 hrs by annexin V-FITC/PI staining based flow cytometry (reference value: 4.28 %); format: functional
BE(2)-C [20] = experiment: Induction of apoptosis in human BE2C cells assessed as late apoptotic cells at 50 nM incubated for 48 hrs by annexin V-FITC/PI staining based flow cytometry (reference value: 9.99 %); format: functional
BE(2)-C [21] = experiment: Induction of apoptosis in human BE2C cells assessed as necrotic cells at 50 nM incubated for 48 hrs by annexin V-FITC/PI staining based flow cytometry (reference value: 3.57 %); format: functional
BE(2)-C [22] = experiment: Induction of apoptosis in human BE2C cells assessed as viable cells at 100 nM incubated for 48 hrs by annexin V-FITC/PI staining based flow cytometry (reference value: 82.16 %); format: functional; settings: read-out: Activity
BE(2)-C [23] = experiment: Induction of apoptosis in human BE2C cells assessed as late apoptotic cells at 100 nM incubated for 48 hrs by annexin V-FITC/PI staining based flow cytometry (reference value: 9.99 %); format: functional
[24] = Metabolic stability in human liver microsomes assessed as compound remaining incubated for 5 mins; format: ADME, Microsome; settings: read-out: Stability
[25] = Metabolic stability in human liver microsomes assessed as compound remaining incubated for 10 mins; format: ADME, Microsome; settings: read-out: Stability
[26] = Metabolic stability in human liver microsomes assessed as compound remaining incubated for 20 mins; format: ADME, Microsome; settings: microsomes, 20 min
[27] = Metabolic stability in human liver microsomes assessed as compound remaining incubated for 30 mins; format: ADME, Microsome; settings: liver microsomes, read-out: Stability
[28] = Metabolic stability in human liver microsomes assessed as compound remaining incubated for 60 mins; format: ADME, Microsome; settings: liver microsomes, read-out: Stability
[29] = Metabolic stability in human liver microsomes assessed as intrinsic clearance; format: ADME, Microsome; settings: read-out: CLH
[30] = Metabolic stability in human liver microsomes assessed as half life; format: ADME, Microsome
BE(2)-C [31] = experiment: Antitumor activity against human BE2C cells xenografted in nude mouse assessed as tumor growth inhibition at 25 mg/kg, ip treated for every 3 days relative to control; format: functional; settings: 72 h, time 3 day, read-out: TGI
[32] = Toxicity in nude mouse xenografted with human BE2C cells assessed as body weight loss at 25 mg/kg, ip treated for every 3 days; format: organism-based; settings: in vivo, 72 h, time 3 day
[33] = Toxicity in nude mouse xenografted with human BE2C cells assessed as adverse effect at 25 mg/kg, ip treated for every 3 days; format: organism-based; settings: in vivo, 72 h, time 3 day

Sequence of Tubulin (Sus scrofa) (P02550 whole entry, looked up): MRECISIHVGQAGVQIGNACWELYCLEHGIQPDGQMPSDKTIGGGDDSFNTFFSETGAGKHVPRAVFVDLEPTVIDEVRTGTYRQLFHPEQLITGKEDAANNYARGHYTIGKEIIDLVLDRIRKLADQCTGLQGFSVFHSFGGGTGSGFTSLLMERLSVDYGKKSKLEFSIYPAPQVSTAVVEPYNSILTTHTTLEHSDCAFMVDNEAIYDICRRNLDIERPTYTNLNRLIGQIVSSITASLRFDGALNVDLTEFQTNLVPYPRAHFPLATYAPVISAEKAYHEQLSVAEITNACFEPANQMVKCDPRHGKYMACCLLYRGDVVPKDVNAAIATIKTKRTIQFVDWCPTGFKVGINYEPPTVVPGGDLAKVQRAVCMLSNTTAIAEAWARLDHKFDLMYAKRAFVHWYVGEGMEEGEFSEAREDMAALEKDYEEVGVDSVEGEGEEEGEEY
Sequence of Tubulin (Sus scrofa) (P02554 whole entry, looked up): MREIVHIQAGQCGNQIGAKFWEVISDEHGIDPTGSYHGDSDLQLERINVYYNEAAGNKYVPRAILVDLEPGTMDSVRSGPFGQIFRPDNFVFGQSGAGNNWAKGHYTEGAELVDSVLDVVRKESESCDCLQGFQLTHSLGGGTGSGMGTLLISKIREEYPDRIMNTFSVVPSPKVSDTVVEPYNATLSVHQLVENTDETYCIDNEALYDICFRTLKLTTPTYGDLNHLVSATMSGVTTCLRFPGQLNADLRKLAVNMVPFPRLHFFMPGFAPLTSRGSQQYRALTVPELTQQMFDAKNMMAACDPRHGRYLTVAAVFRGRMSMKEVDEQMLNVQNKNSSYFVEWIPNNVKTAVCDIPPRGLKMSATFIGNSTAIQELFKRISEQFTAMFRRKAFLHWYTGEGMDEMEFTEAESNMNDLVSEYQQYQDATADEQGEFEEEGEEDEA

IC50 (A549): 53 nM
IC50 (U-87 MG): 56 nM
IC50 (HCT-116): 51 nM
IC50 (Histone deacetylase 8): 177 nM
inhibition (Tubulin (Sus scrofa)): Dose-Dependent Effect
IC50 (Tubulin): 5400 nM
solubility at 10 min [5]: 102 µg/mL (≈ 185 µM)
inhibition (Tubulin (Homo sapiens) [6]): Active
inhibition (Tubulin (Homo sapiens) [7]): Active
remaining at 5 min [24]: 89.4%
remaining at 10 min [25]: 80%
Stability [26]: 61.3%
remaining at 0.5 h [27]: 58.2%
remaining at 1 h [28]: 55.3%
CLint scaled [29]: 18.1 mL/min/kg
t1/2 [30]: 1.15 h
Structure (SMILES): COc1ccc([C@H]2[C@H](COC(=O)c3ccc(C(=O)NO)cc3)C(=O)N2c2cc(OC)c(OC)c(OC)c2)cc1O
IC50 (BE(2)-C [1]): 17 nM
Activity (BE(2)-C [2]): Dose-Dependent Effect
Activity (BE(2)-C [3]): Dose-Dependent Effect
Activity (BE(2)-C [4]): Dose-Dependent Effect
inhibition (BE(2)-C [8]): Active
inhibition at 0.1 µM (BE(2)-C [9]): 100%
Activity (BE(2)-C [10]): Active
Activity (BE(2)-C [11]): Active
Activity (BE(2)-C [12]): Dose-Dependent Effect
Activity (BE(2)-C [13]): Dose-Dependent Effect
Activity (BE(2)-C [14]): Dose-Dependent Effect
viability at 0.025 µM (BE(2)-C [15]): 62.1%
Activity (BE(2)-C [16]): 11.81%
Activity (BE(2)-C [17]): 19.01%
Activity (BE(2)-C [18]): 7.06%
Activity (BE(2)-C [19]): 12.23%
Activity (BE(2)-C [20]): 29.09%
Activity (BE(2)-C [21]): 8.53%
viability at 0.1 µM (BE(2)-C [22]): 29.2%
Activity (BE(2)-C [23]): 44%
inhibition in vivo at 25 mg/kg (BE(2)-C [31]): 67%
Activity [32]: Non-Toxic
Activity [33]: Non-Toxic
